In BindingDB's records for doi:10.1016/j.bmcl.2006.08.080 (Johnson & Johnson Pharmaceutical, 2006):
pIC50: −log10 of the molar value.

biological target: T1, Aurora kinase A (Mus musculus, UniProt P97477); experiment: Aurora Kinase Inhibition Assay; settings: pH 7.5; 22 °C
T1 sequence (P97477 whole entry): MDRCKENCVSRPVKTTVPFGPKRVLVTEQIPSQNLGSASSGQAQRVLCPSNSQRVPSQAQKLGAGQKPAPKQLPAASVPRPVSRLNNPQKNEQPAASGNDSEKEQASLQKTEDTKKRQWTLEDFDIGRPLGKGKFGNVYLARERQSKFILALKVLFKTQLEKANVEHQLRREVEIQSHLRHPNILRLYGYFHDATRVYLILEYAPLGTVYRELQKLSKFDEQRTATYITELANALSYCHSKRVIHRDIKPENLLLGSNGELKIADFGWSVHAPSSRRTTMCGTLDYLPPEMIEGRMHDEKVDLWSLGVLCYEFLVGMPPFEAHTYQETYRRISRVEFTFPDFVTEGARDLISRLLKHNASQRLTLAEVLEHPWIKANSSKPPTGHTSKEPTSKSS
Description: The compounds were tested for their ability to inhibit the phosphorylation of serine 10 of histone-H3 by purified recombinant murine Aurora-A enzyme. The phosphorylation of serine 10 was detected colorimetrically using Phospho-Histone H3 (Ser10) (6G3) Mouse mAb (9706, Cell Signaling Technologies, Danvers, MA).

Row | SMILES | pIC50
1 | CN1CCN(c2cccc(Nc3ncc4ccn(-c5cccc(C#N)c5)c4n3)c2)CC1 [3-(2-{[3-(4-methylpiperazin-1-yl)phenyl]amino}-7H-pyrrolo[2,3-d]pyrimidin-7-yl)benzonitrile] | 7.89
2 | O=S1(=O)CCN(c2ccc(Nc3ncc4ccn(-c5ccccn5)c4n3)cc2)CC1 [4-(4-{[7-(pyridin-2-yl)-7H-pyrrolo[2,3-d]pyrimidin-2-yl]amino}phenyl)-1,4-thiomorpholine-1,1-dione] | 9.10
3 | O=S1(=O)CCN(c2ccc(Nc3ncc4ccn(C5CCCCC5)c4n3)cc2)CC1 [4-[4-({7-cyclohexyl-7H-pyrrolo[2,3-d]pyrimidin-2-yl}amino)phenyl]-1,4-thiomorpholine-1,1-dione] | 7.92
4 | CN1CCN(c2cccc(Nc3ncc4ccn(-c5cccc(S(C)(=O)=O)c5)c4n3)c2)CC1 [7-(3-methanesulfonylphenyl)-N-[3-(4-methylpiperazin-1-yl)phenyl]-7H-pyrrolo[2,3-d]pyrimidin-2-amine] | 8.00
5 | CN1CCN(c2ccc(Nc3ncc4ccn(-c5cccc(S(C)(=O)=O)c5)c4n3)cc2)CC1 [7-(3-methanesulfonylphenyl)-N-[4-(4-methylpiperazin-1-yl)phenyl]-7H-pyrrolo[2,3-d]pyrimidin-2-amine] | 8.05
6 | c1cc(N2CCOCC2)ccc1Nc1ncc2ccn(C3CCCCC3)c2n1 [7-cyclohexyl-N-[4-(morpholin-4-yl)phenyl]-7H-pyrrolo[2,3-d]pyrimidin-2-amine] | 7.31
7 | CN1CCN(c2ccc(Nc3ncc4ccn(C5CC6CCC5C6)c4n3)cc2)CC1 (stereo not given) [7-{bicyclo[2.2.1]heptan-2-yl}-N-[4-(4-methylpiperazin-1-yl)phenyl]-7H-pyrrolo[2,3-d]pyrimidin-2-amine] | 7.41
8 | CN1CCN(c2cccc(Nc3ncc4ccn(-c5ccccn5)c4n3)c2)CC1 [N-[3-(4-methylpiperazin-1-yl)phenyl]-7-(pyridin-2-yl)-7H-pyrrolo[2,3-d]pyrimidin-2-amine] | 8.30
9 | CN1CCN(c2cccc(Nc3ncc4ccn(-c5cccnc5)c4n3)c2)CC1 [N-[3-(4-methylpiperazin-1-yl)phenyl]-7-(pyridin-3-yl)-7H-pyrrolo[2,3-d]pyrimidin-2-amine] | 7.92
10 | CC(C)c1cccc(-n2ccc3cnc(Nc4cccc(N5CCN(C)CC5)c4)nc32)c1 [N-[3-(4-methylpiperazin-1-yl)phenyl]-7-[3-(propan-2-yl)phenyl]-7H-pyrrolo[2,3-d]pyrimidin-2-amine] | 7.54
11 | CN1CCN(c2ccc(Nc3ncc4ccn(-c5cccnc5)c4n3)cc2)CC1 [N-[4-(4-methylpiperazin-1-yl)phenyl]-7-(pyridin-3-yl)-7H-pyrrolo[2,3-d]pyrimidin-2-amine] | 7.89
12 | COCCN1CCN(Nc2ncc3ccn(C4CCCCC4)c3n2)CC1 [N-{7-cyclohexyl-7H-pyrrolo[2,3-d]pyrimidin-2-yl}-4-(2-methoxyethyl)piperazin-1-amine] | 8.22

Other lines, results leading:

Row | pIC50 | SMILES
13 | 7.96 | CN1CCN(c2cccc(Nc3ncc4ccn(-c5cccc(C(N)=O)c5)c4n3)c2)CC1 [3-(2-{[3-(4-methylpiperazin-1-yl)phenyl]amino}-7H-pyrrolo[2,3-d]pyrimidin-7-yl)benzamide]
14 | 7.74 | CN1CCN(c2ccc(Nc3ncc4ccn(C5Cc6ccccc6C5)c4n3)cc2)CC1 [7-(2,3-dihydro-1H-inden-2-yl)-N-[4-(4-methylpiperazin-1-yl)phenyl]-7H-pyrrolo[2,3-d]pyrimidin-2-amine]
15 | 8.22 | COc1cccc(-n2ccc3cnc(Nc4cccc(N5CCN(C)CC5)c4)nc32)c1 [7-(3-methoxyphenyl)-N-[3-(4-methylpiperazin-1-yl)phenyl]-7H-pyrrolo[2,3-d]pyrimidin-2-amine]
16 | 7.74 | COc1cccc(-n2ccc3cnc(Nc4ccc(N5CCN(C)CC5)cc4)nc32)c1 [7-(3-methoxyphenyl)-N-[4-(4-methylpiperazin-1-yl)phenyl]-7H-pyrrolo[2,3-d]pyrimidin-2-amine]
17 | 8.52 | CN1CCN(c2cccc(Nc3ncc4ccn(-c5ccccc5)c4n3)c2)CC1 [N-[3-(4-methylpiperazin-1-yl)phenyl]-7-phenyl-7H-pyrrolo[2,3-d]pyrimidin-2-amine]
18 | 7.41 | COc1cc2c(Nc3ccc(NC(=O)c4ccccc4)cc3)ncnc2cc1OCCCN1CCOCC1 [N-[4-({6-methoxy-7-[3-(morpholin-4-yl)propoxy]quinazolin-4-yl}amino)phenyl]benzamide]
19 | 6.09 | CN1CCN(c2cccc(Nc3ncc4ccn(-c5cccc(C(=O)NC6CCCC6)c5)c4n3)c2)CC1 [N-cyclopentyl-3-(2-{[3-(4-methylpiperazin-1-yl)phenyl]amino}-7H-pyrrolo[2,3-d]pyrimidin-7-yl)benzamide]

biological target: Receptor-type tyrosine-protein kinase FLT3 (Homo sapiens, UniProt P36888); experiment: FLT3 Inhibition Assay; settings: not given
Description: The compounds were tested for their ability to inhibit the phosphorylation of poly(Glu:Tyr) by purified recombinant human FLT3. The extent of phosphorylation was quantitated by a fluorescent polarization competition immunoassay (Ex: 485 nm, Em:530 nm) using an anti-phosphotyrosine antibody and a phosphotyrosine tracer (Green Tyrosine Kinase Assay Kit, PanVera P2837).

Sequence of Receptor-type tyrosine-protein kinase FLT3 (P36888 whole entry, looked up): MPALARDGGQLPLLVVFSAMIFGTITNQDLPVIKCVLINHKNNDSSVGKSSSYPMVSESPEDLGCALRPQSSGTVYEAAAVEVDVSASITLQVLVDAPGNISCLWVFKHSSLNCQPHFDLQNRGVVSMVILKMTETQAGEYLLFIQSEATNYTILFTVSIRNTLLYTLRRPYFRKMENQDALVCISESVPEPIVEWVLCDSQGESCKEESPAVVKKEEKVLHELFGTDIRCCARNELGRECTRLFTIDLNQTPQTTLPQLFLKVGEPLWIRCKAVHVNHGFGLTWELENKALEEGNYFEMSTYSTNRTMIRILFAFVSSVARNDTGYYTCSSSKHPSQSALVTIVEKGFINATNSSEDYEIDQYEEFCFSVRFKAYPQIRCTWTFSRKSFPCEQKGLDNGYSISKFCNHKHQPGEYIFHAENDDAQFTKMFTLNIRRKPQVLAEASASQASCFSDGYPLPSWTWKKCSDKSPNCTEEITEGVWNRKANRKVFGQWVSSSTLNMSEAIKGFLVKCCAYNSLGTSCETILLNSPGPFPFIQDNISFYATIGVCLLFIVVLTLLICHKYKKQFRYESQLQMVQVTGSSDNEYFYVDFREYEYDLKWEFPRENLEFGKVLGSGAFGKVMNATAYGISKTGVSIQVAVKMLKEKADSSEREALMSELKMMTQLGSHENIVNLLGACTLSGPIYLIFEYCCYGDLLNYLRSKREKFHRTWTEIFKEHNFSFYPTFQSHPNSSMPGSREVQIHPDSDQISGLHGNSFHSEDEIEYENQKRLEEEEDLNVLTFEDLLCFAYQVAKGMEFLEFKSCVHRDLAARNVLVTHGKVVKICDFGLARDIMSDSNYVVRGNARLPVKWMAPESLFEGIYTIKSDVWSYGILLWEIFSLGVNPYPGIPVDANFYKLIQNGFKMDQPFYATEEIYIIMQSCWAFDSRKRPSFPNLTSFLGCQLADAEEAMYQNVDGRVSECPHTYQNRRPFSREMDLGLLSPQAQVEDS

Row | SMILES | pIC50
20 | O=S1(=O)CCN(c2ccc(Nc3ncc4ccn(-c5ccccn5)c4n3)cc2)CC1 [4-(4-{[7-(pyridin-2-yl)-7H-pyrrolo[2,3-d]pyrimidin-2-yl]amino}phenyl)-1,4-thiomorpholine-1,1-dione] | > 9.00
